Test results from PubChem BioAssay (NCI).
Where “and” joins values, the source holds several entries; their conditions need not be identical. Equal values may be shown once.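 Cultured in 96-well plates, cells were exposed to test compound for 48 hours across five concentrations. GI50 = concentration required for 50% inhibition of growth. TGI is the concentration that stops growth completely.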

Legend:
Assay in all cases: inhibition of tumour cell growth, NCI panel, 48 h
NCI/ADR-RES ovarian = test system: NCI/ADR-RES ovarian
SN12C renal = test system: SN12C renal
SF-268 CNS = test system: SF-268 CNS
BT-549 breast = test system: BT-549 breast
RPMI-8226 leukemia = test system: RPMI-8226 leukemia
NCI-H460 lung = test system: NCI-H460 lung
UO-31 renal = test system: UO-31 renal
K-562 leukemia = test system: K-562 leukemia
HL-60(TB) leukemia = test system: HL-60(TB) leukemia
OVCAR-8 ovarian = test system: OVCAR-8 ovarian
SNB-75 CNS = test system: SNB-75 CNS
MOLT-4 leukemia = test system: MOLT-4 leukemia
CCRF-CEM leukemia = test system: CCRF-CEM leukemia
OVCAR-5 ovarian = test system: OVCAR-5 ovarian
HS 578T breast = test system: HS 578T breast
SK-MEL-28 melanoma = test system: SK-MEL-28 melanoma
MDA-MB-231 breast = test system: MDA-MB-231 breast

SMILES | TGI (NCI/ADR-RES ovarian) [µM] | TGI (SN12C renal) [µM] | TGI (SF-268 CNS) [µM] | TGI (BT-549 breast) [µM] | TGI (RPMI-8226 leukemia) [µM] | TGI (NCI-H460 lung) [µM] | TGI (UO-31 renal) [µM] | TGI (K-562 leukemia) [µM] | TGI (HL-60(TB) leukemia) [µM] | TGI (OVCAR-8 ovarian) [µM] | TGI (SNB-75 CNS) [µM] | TGI (MOLT-4 leukemia) [µM] | TGI (CCRF-CEM leukemia) [µM] | TGI (OVCAR-5 ovarian) [µM] | TGI (HS 578T breast) [µM] | TGI (SK-MEL-28 melanoma) [µM] | TGI (MDA-MB-231 breast) [µM] | GI50 (HS 578T breast) | GI50 (BT-549 breast) [µM]
Cc1ccc([N+](=O)[O-])cc1S(=O)(=O)Nc1ccc(C(=O)/C=C/c2ccccc2)cc1 | 66.2 | 43.2 | 73.2 | 33.7 | 37.1 | 37.8 | 40.7 | 29.7 | 65.1 | 50.2 | 32.3 | 23 | 69.9 | 54.7 | > 100 | 49.6 | 32.3 |  | 
Brc1ccc(N=C/C=C(\Nc2ccc(Br)cc2)C23CC4CC(CC(C4)C2)C3)cc1 | > 84.9 | > 64.2 | 37.9 | 49.7 | > 100 | > 68.8 | 34.6 | > 67 | 23.3 | > 81.3 | 35.5 | > 72.8 | 4.5 | > 67.8 | > 67.4 | > 59.5 | 31.9 |  | 
COc1cc(/C=C2\N=C(c3ccccc3)N(c3ccc4c(c3)Sc3cc(N5C(=O)/C(=C/c6cc(OC)c(OC)c(OC)c6)N=C5c5ccccc5)ccc3N4)C2=O)cc(OC)c1OC | > 100 | 51 | 37.5 | 55.6 | 88.9 | > 100 | > 100 | 48.4 | 65.3 | 37.9 | 52.5 | > 100 | 57.3 | 39.6 | 88.1 | > 100 | 67.8 |  | 
Oc1c(Nc2ccccc2)cc2c3c1N=NC=3CCN=2 | > 100 | > 100 | > 100 | > 100 | > 100 | > 100 | > 100 | > 100 | 53.2 | 59.8 | > 100 | 87.3 | 93.9 | > 100 | > 100 | > 100 | > 100 |  | 
COc1ccc(-c2nc(SCC(=O)N/N=C/c3ccc([N+](=O)[O-])cc3)[nH]c2-c2ccc(OC)cc2)cc1 | 79.7 | 46.6 | > 100 | 51.3 | 62 | 45.8 | > 100 | > 100 | 24.7 | > 100 | > 63.3 | 42.1 | > 22.1 | 60.7 | 76.3 | > 72 | > 100 |  | 
CC1(C)CCCCC1/C=C/C(CC(O)(C(F)(F)F)C(F)(F)F)=N\Nc1ccc([N+](=O)[O-])cc1[N+](=O)[O-] (stereo unspecified) | > 100 | 31.7 | 3 | 1.99 | 1.27 | 6.73 | 4.15 | 11.1 | > 100 | 14.7 | 11.7 | 5.78 | 4.91 | 13.1 | 40.6 | 18.8 | 9.62 |  | 
C=C1CC2(C)CCC(OC(=O)C3(C)OC3C)C(C)(OC(C)=O)C2CC1=C(C)C (stereo unspecified) | > 100 | > 100 | > 100 | > 100 | > 100 | > 100 | > 100 | > 100 | 76.1 | > 100 | > 100 | > 100 | > 100 | > 100 | > 100 | > 100 | > 100 |  | 
CN(NC(=O)c1ccc(Cl)cc1)C1=NCCCCN1 | > 100 |  | > 100 | > 100 | > 100 | > 100 | > 100 | > 100 | > 100 | > 100 | > 100 | > 100 | > 100 | > 100 | > 100 | > 100 | > 100 |  | 
c1ccc(C2C3=C(c4ccccc4CC3)N3c4cc5nc6ccccc6nc5cc4NC34CCCCC24)cc1 (stereo unspecified) | > 10 | > 10 | > 10 | > 10 | > 9.17 | > 10 | > 10 | > 10 | > 6.29 | > 10 | > 10 | > 8.19 | 5.9 | > 10 | > 10 | > 10 | > 10 |  | 
CCc1nc2c(n1CC)C(=O)c1ccccc1C2=O | > 100 | > 100 | > 100 | > 100 | > 100 | > 100 |  | > 100 | > 100 | > 100 | > 100 | > 100 | > 100 | > 100 | > 100 | > 100 | 49.4 |  | 
CC(=O)OCC(OC(C)=O)C(OC(C)=O)C(/C=N\Nc1nc2ccccc2c(=O)[nH]1)OC(C)=O (stereo unspecified) | > 100 | > 100 | > 100 | > 100 | > 100 | > 100 | > 100 | > 100 | > 100 | > 100 | > 100 | > 100 | > 100 | > 100 | > 100 | > 100 | > 100 | 40.6 µM and 88.4 µM | 
N[C@@H]1c2c(Br)sc(Br)c2C(=O)[C@H]1Br | 53.8 | 58.9 | > 100 | 43.1 | 39.5 | > 100 | 55.6 | > 67 | > 24.8 | 48.4 | > 100 | > 46.1 | > 22.6 | > 100 | > 100 | 54.8 | 48.5 |  | 
O=C(Nn1c(-c2ccccc2)nc2ccccc2c1=O)c1ccc([N+](=O)[O-])cc1 | > 100 | > 100 | > 100 | > 100 | > 100 | > 100 | > 100 | > 100 | > 100 | > 100 | > 100 | > 100 | > 100 | > 100 | > 100 | > 100 | > 100 |  | 
CC(Cc1ccc(O)cn1)(NC(=O)c1ccccc1)C(=O)O (stereo unspecified) | > 100 |  | > 100 | > 100 | > 100 | > 100 | > 100 | > 100 | > 100 | > 100 | > 100 | > 100 | > 100 | > 100 | > 100 | > 100 | > 100 |  | 
CC(=O)OC12c3ccccc3C(c3ccccc31)C1C(=O)N(Nc3ccccc3)C(=O)C12 (stereo unspecified) | > 100 | > 100 | > 100 | > 100 | > 100 | > 100 | > 100 | > 100 | > 100 | > 100 | > 100 | > 100 | > 100 | > 100 | > 100 | > 100 | > 100 |  | 
Cc1ccc2[nH]c3c(C)c4cc[n+](C)cc4c(C)c3c2c1 | > 100 | 1.52 | 1.77 | 3.05 | > 59.7 | 40.7 | 60.2 | 63.4 | 29.8 | 8.97 | 0.761 | 54.9 | 40.3 | 77.1 | 0.917 | 8.48 | > 44.7 |  | 
O=c1cc(CN2CCCCC2)[nH]c2c1ccc1nc(CN3CCCCC3)cc(=O)n12 | > 100 | > 100 | > 100 | > 100 | > 100 | > 100 | > 100 | > 100 | > 100 | > 100 | > 100 | > 100 | > 100 | > 100 | > 100 | > 100 | > 100 |  | 
C/C(CC(O)(C(F)(F)Cl)C(F)(F)Cl)=N\Nc1ccccc1 | > 100 |  |  | > 100 | > 100 | > 100 | > 100 | > 100 | 62.5 | > 100 | 78.9 | 84.2 | > 100 | > 100 | 66.2 | > 100 | > 100 |  | 
CCOC(=O)C(=NN(C)c1ncccc1N)C(=O)OCC | > 100 | 64.5 | > 100 | > 100 | > 100 | > 100 | > 100 | 59.1 | 84.2 | > 100 | > 100 | 53.7 | > 100 |  | > 100 | > 100 | 83.3 |  | 
COc1cc(C)cc(C(=O)OCc2ccccc2)c1C1=C(Cl)C(=O)C(Cl)=CC1=O | > 10 | > 10 | > 10 | > 10 | > 10 | > 10 | > 10 | 5.37 | 2.55 | > 10 | > 10 | 5.29 | 4.76 | > 10 | > 10 | > 10 | > 10 |  | 
C=CC(Br)(CBr)CCC1OC1(C)C (stereo unspecified) | 58.7 | 30.5 | 31.2 | 30.2 | 82 | 28.3 | 32.8 | > 100 | > 100 |  | 32.3 | 47.8 | > 100 | 33.3 | 37.6 | 30.5 | 24.6 |  | 
Cc1ccc(S(=O)(=O)NN=C2C(C)CC(C(C)(C)C)CC2C)cc1 (stereo unspecified) | 82.1 | 32.7 |  | 35.5 | 52.8 | 34.3 | 40.8 | 44.1 | 52.7 | 59.8 | 37.8 | 43 | 41.8 | 31.5 | > 100 | 36.6 | 85.9 |  | 
CCOC(=O)c1ccc(N(C)Cc2cnc3nc(N)nc(N)c3n2)cc1 | 38.8 | > 100 | > 100 | > 100 | > 100 | > 100 | 72.1 | > 100 | > 100 | 29.2 | 54 | > 100 | > 100 | > 100 | 73.1 | 83.8 | 81.7 |  | 
CCCCCCCCOP(=O)(O)OP(=O)(O)OCC1OC(n2ccc(N)nc2=O)C(O)C1O (stereo unspecified) | > 100 | > 100 | > 100 | > 100 | > 100 | > 100 | > 100 | > 100 | > 100 | > 100 | > 100 | > 100 | > 100 | > 100 | > 100 | > 100 | > 100 |  | 
NCCSC1(O)C(=O)c2ccccc2-c2ccccc21 (stereo unspecified) | 1.4 | 2.76 | 2.91 | 2.9 | 0.637 | 3.34 | 2.87 | 2.43 | 2.55 | 1.16 | 2.4 | 1.21 | 6.82 | 3.34 | 6.2 | 2.85 | 2.53 |  | 1.56
CO[C@@H]1C[C@H]2[C@@H]3CC[C@H]([C@@H](C)COC(C)=O)[C@@]3(C)CC[C@@H]2[C@@]2(C)CC[C@H]3C[C@]312 | 30.4 | 32.1 | 40.6 | 27.2 | 29.9 | 23.4 | 32.4 | 27.7 | 19.1 | 24.7 | 33.5 | 32.3 | 40.7 | 23.6 | 39.5 | 31.9 | 24.3 |  | 
